{"source": "patent US20080140036A1", "about": "“Antimicrobial Composition” (priority 2004, published 2008)", "key": {"MRSA 12": {"tested_on": "MRSA 12", "assay": "ZOI of triclosan vapours (vapour phase)"}, "MSSA (48)": {"tested_on": "MSSA (48)", "assay": "ZOI of triclosan vapours (vapour phase)", "assay_type": "cell-based, S. aureus"}, "[1]": {"tested_on": "S. haemolyticus NCTC 11042", "assay": "ZOI of triclosan vapours (vapour phase)", "assay_type": "cell-based"}, "MSSA (4)": {"tested_on": "MSSA (4)", "assay": "ZOI of triclosan vapours (vapour phase)", "assay_type": "cell-based, S. aureus"}, "Strain T1 MSSA": {"tested_on": "Strain T1 MSSA", "assay": "MIC of triclosan (direct contact)", "assay_type": "cell-based, S. aureus"}, "[2]": {"tested_on": "S. saprophyticus NCIMB 8711", "assay": "ZOI of triclosan vapours (vapour phase)", "assay_type": "cell-based"}, "S. epidermidis NCTC 7944": {"tested_on": "S. epidermidis NCTC 7944", "assay": "ZOI of triclosan vapours (vapour phase)", "assay_type": "cell-based"}, "[3]": {"tested_on": "S. saprophyticus NCIMB 8711", "assay": "MIC of triclosan (direct contact)", "assay_type": "cell-based"}, "[4]": {"tested_on": "EMRSA m97 271 036 phage group 11", "assay": "ZOI of triclosan vapours (vapour phase)"}, "[5]": {"tested_on": "EMRSA m97 271 088 phage group 6", "assay": "ZOI of triclosan vapours (vapour phase)"}, "[6]": {"tested_on": "EMRSA m97 271 032 phage group 10", "assay": "ZOI of triclosan vapours (vapour phase)"}, "[7]": {"tested_on": "EMRSA g96 136 210 phage group 17", "assay": "ZOI of triclosan vapours (vapour phase)"}}}
{"smiles": "Oc1cc(Cl)ccc1Oc1ccc(Cl)cc1Cl", "note": "[triclosan]", "values": [{"measurement": "ZOI Average", "setting": "MRSA 12; average", "result": 44.5, "unit": "mm"}, {"measurement": "ZOI 1", "setting": "MRSA 12; replicate 1", "result": 45, "unit": "mm"}, {"measurement": "ZOI 2", "setting": "MRSA 12; replicate 2", "result": 44, "unit": "mm"}, {"measurement": "ZOI Average", "setting": "MSSA (48); average", "result": 48.5, "unit": "mm"}, {"measurement": "ZOI 1", "setting": "MSSA (48); replicate 1", "result": 49, "unit": "mm"}, {"measurement": "ZOI 2", "setting": "MSSA (48); replicate 2", "result": 48, "unit": "mm"}, {"measurement": "ZOI Average", "setting": "[1]; average", "result": 46, "unit": "mm"}, {"measurement": "ZOI 1", "setting": "[1]; replicate 1", "result": 48, "unit": "mm"}, {"measurement": "ZOI 2", "setting": "[1]; replicate 2", "result": 44, "unit": "mm"}, {"measurement": "ZOI Average", "setting": "MSSA (4); average", "result": 51, "unit": "mm"}, {"measurement": "ZOI 1", "setting": "MSSA (4); replicate 1", "result": 50, "unit": "mm"}, {"measurement": "ZOI 2", "setting": "MSSA (4); replicate 2", "result": 52, "unit": "mm"}, {"measurement": "MIC", "setting": "Strain T1 MSSA", "result": 0.5, "unit": "Mg ml^−1−"}, {"measurement": "ZOI Average", "setting": "[2]; average", "result": 37.5, "unit": "mm"}, {"measurement": "ZOI 1", "setting": "[2]; replicate 1", "result": 33, "unit": "mm"}, {"measurement": "ZOI 2", "setting": "[2]; replicate 2", "result": 42, "unit": "mm"}, {"measurement": "ZOI Average", "setting": "S. epidermidis NCTC 7944; average", "result": 50.5, "unit": "mm"}, {"measurement": "ZOI 1", "setting": "S. epidermidis NCTC 7944; replicate 1", "result": 50, "unit": "mm"}, {"measurement": "ZOI 2", "setting": "S. epidermidis NCTC 7944; replicate 2", "result": 51, "unit": "mm"}, {"measurement": "MIC", "setting": "[3]", "result": 2, "unit": "Mg ml^−1−"}, {"measurement": "ZOI Average", "setting": "[4]; average", "result": 52, "unit": "mm"}, {"measurement": "ZOI 1", "setting": "[4]; replicate 1", "result": 52, "unit": "mm"}, {"measurement": "ZOI 2", "setting": "[4]; replicate 2", "result": 52, "unit": "mm"}, {"measurement": "ZOI Average", "setting": "[5]; average", "result": 52, "unit": "mm"}, {"measurement": "ZOI 1", "setting": "[5]; replicate 1", "result": 52, "unit": "mm"}, {"measurement": "ZOI 2", "setting": "[5]; replicate 2", "result": 52, "unit": "mm"}, {"measurement": "ZOI Average", "setting": "[6]; average", "result": 49, "unit": "mm"}, {"measurement": "ZOI 1", "setting": "[6]; replicate 1", "result": 49, "unit": "mm"}, {"measurement": "ZOI 2", "setting": "[6]; replicate 2", "result": 49, "unit": "mm"}, {"measurement": "ZOI Average", "setting": "[7]; average", "result": 47, "unit": "mm"}, {"measurement": "ZOI 1", "setting": "[7]; replicate 1", "result": 47, "unit": "mm"}, {"measurement": "ZOI 2", "setting": "[7]; replicate 2", "result": 47, "unit": "mm"}]}
